Consider eleven compounds from patent publication US10611740B2, “Aryl dihydro-2H-benzo[b][1,4]oxazine sulfonamide and related compounds for use as agonists of RORγ and the treatment of disease” (Lycera Corporation, priority 2015, dated 2020).

Bounds are passed on as bounds.

For test [1], the target named is T1, RORγ-LBD (Homo sapiens, UniProt P51449).
T1 construct: made in house; host or cells: SF9 cells (baculovirus)
T1 sequence (P51449 269-508 limits assumed): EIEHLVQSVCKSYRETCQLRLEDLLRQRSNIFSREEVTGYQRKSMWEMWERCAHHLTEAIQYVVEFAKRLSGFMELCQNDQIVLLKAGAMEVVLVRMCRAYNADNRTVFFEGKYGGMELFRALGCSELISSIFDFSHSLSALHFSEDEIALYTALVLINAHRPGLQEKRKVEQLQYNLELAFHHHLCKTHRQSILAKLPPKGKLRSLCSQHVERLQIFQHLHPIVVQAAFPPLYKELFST
Put plainly: RORγ-Ligand Binding Domain (LBD) TR-FRET Assay.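 For TR-FRET Assay Max Response: 665/615 nm ratio relative to signal without ursolic acid or compound set at 100.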 Format: biochemical. A digest of the protocol:
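TR-FRET read-out using a biotin-tagged SRC1 coactivator LXXLL peptide (200 nM final), with the antagonist ursolic acid present at 2 μM final. Receptor is His-tagged LBD expressed in SF9 cells, ~3 nM final in pH 7.0 Tris/KCl/EDTA/DTT/BSA buffer; compounds in 1% DMSO final.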
For orientation: Time-resolved FRET reads energy transfer from a long-lived donor to a nearby acceptor.

In test [2] the target is T2, Gal4-RORγ-LBD (Homo sapiens, UniProt P51449).
T2 construct: expressed in transfected cells; host or cells: HEK-293 cells (pcDNA3.1neo plasmid)
T2 sequence (P51449 269-508 limits assumed): T1 sequence (P51449 269-508 limits assumed)
Put plainly: Gal4-RORγ Luciferase Reporter Assay in HEK-293T Cells. The class given is cell-based. The note with it: HEK-293 cells. Put shortly:
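Luminescence read-out (One-Glo, 10 min RT) after overnight compound exposure at 37 °C in HEK-293 cells carrying Gal4-RORγ-LBD plus a Gal4-luciferase reporter, in the presence of 2 μM ursolic acid. Max Response is the upper plateau from a 4-parameter logistic fit, normalized to untreated signal = 100.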
In general terms: A reporter such as luciferase makes a cellular process visible.

Setting [3] is: luciferase reporter, with 2 μM ursolic acid.

Consider `O=C(O)CC[C@H]1CN(S(=O)(=O)c2cccc(C(F)(F)F)c2)c2cc(-c3cc(F)cc(F)c3)cc(F)c2O1` [Compound 22K, (S)-3-(6-(3,5-difluorophenyl)-8-fluoro-4-((3-(trifluoromethyl)-phenyl)sulfonyl)-3,4-dihydro-2H-benzo[b][1,4]oxazin-2-yl)propanoic acid], for which, in test [1], the EC50 (commonly the concentration at which the effect is half-maximal) was below 0.5 µM and the “TR-FRET Assay Max Response” value is “*** (The symbol “***” indicates a value in the range of greater than 150 to 200)”. Besides, in test [2] (2 μM ursolic acid), the EC50 is below 0.5 µM and the “Gal4-RORγ Assay Max Response” value was “** (The symbol “**” indicates a value in the range of greater than 90 to 150)”.
Take `O=C(CC[C@H]1CN(S(=O)(=O)c2cccc(C(F)(F)F)c2)c2cc(-c3cccc(Cl)c3)ccc2O1)N1CCS(=O)(=O)CC1` [Compound 23A, (S)-3-(6-(3-chlorophenyl)-4-((3-(trifluoromethyl)phenyl)sulfonyl)-3,4-dihydro-2H-benzo[b][1,4]-oxazin-2-yl)-1-(1,1-dioxidothio-morpholino)propan-1-one]: in test [1], the EC50 is below 0.5 µM and the “TR-FRET Assay Max Response” value is on record as “**** (The symbol “****” indicates a value greater than 200)”. Also, in test [2] (setting [3]), the EC50 was below 0.5 µM and the “Gal4-RORγ Assay Max Response” value was “** (The symbol “**” indicates a value in the range of greater than 90 to 150)”.
For the compound `O=C(CC[C@H]1CN(S(=O)(=O)c2cccc(C(F)(F)F)c2)c2cc(-c3cccc(Cl)c3)ccc2O1)N1CCOCC1` [Compound 23B, (S)-3-(6-(3-chlorophenyl)-4-((3-(trifluoromethyl)phenyl)sulfonyl)-3,4-dihydro-2H-benzo[b][1,4]-oxazin-2-yl)-1-morpholino-propan-1-one], in test [1], the EC50 was below 0.5 µM and the “TR-FRET Assay Max Response” value is on record as “**** (The symbol “****” indicates a value greater than 200)”. For the same compound, in test [2] (setting [3]), the EC50 was below 0.5 µM and the “Gal4-RORγ Assay Max Response” value is on record as “** (The symbol “**” indicates a value in the range of greater than 90 to 150)”.
On to `O=C(O)C1CCN(C(=O)CC[C@H]2CN(S(=O)(=O)c3cccc(C(F)(F)F)c3)c3cc(-c4cccc(Cl)c4)ccc3O2)CC1` [Compound 23C, (S)-1-(3-(6-(3-chlorophenyl)-4-((3-(trifluoromethyl)phenyl)-sulfonyl)-3,4-dihydro-2H-benzo[b][1,4]oxazin-2-yl)propanoyl)piperidine-4-carboxylic acid], for which, in test [1], the EC50 was below 0.5 µM and the “TR-FRET Assay Max Response” value is “*** (The symbol “***” indicates a value in the range of greater than 150 to 200)”. In addition, in test [2] (setting [3]), the EC50 is below 0.5 µM and the “Gal4-RORγ Assay Max Response” value is listed as “** (The symbol “**” indicates a value in the range of greater than 90 to 150)”.
Turning to `O=C(O)CCNC(=O)CC[C@H]1CN(S(=O)(=O)c2cccc(C(F)(F)F)c2)c2cc(-c3cccc(Cl)c3)ccc2O1` [Compound 23D, (S)-3-(3-(6-(3-chlorophenyl)-4-((3-(trifluoromethyl)phenyl)-sulfonyl)-3,4-dihydro-2H-benzo[b][1,4]oxazin-2-yl)propanamido)propanoic acid], in test [1], the EC50 was below 0.5 µM and the “TR-FRET Assay Max Response” value is reported as “*** (The symbol “***” indicates a value in the range of greater than 150 to 200)”. Moreover, in test [2] (setting [3]), the EC50 is below 0.5 µM and the “Gal4-RORγ Assay Max Response” value is on record as “** (The symbol “**” indicates a value in the range of greater than 90 to 150)”.
On to `O=C(O)C1CCN(C(=O)CC[C@H]2CN(S(=O)(=O)c3cccc(C(F)(F)F)c3)c3cc(-c4cccc(C(F)(F)F)n4)cc(F)c3O2)CC1` [Compound 23E, (S)-1-(3-(8-fluoro-4-((3-(trifluoromethyl)phenyl)sulfonyl)-6-(6-(trifluoromethyl)pyridin-2-yl)-3,4-dihydro-2H-benzo[b][1,4]oxazin-2-yl)propanoyl)piperidine-4-carboxylic acid], for which, in test [1], the EC50 is below 0.5 µM and the “TR-FRET Assay Max Response” value is “**** (The symbol “****” indicates a value greater than 200)”. Also, in test [2] (setting [3]), the EC50 is below 0.5 µM and the “Gal4-RORγ Assay Max Response” value is recorded as “** (The symbol “**” indicates a value in the range of greater than 90 to 150)”.
With `O=C(O)C1CCN(C(=O)CC[C@H]2CN(S(=O)(=O)c3cccc(C(F)(F)F)c3)c3cc(-c4cccc(C(F)(F)F)n4)ccc3O2)CC1` [Compound 23F, (S)-1-(3-(4-((3-(trifluoromethyl)-phenyl)sulfonyl)-6-(6-(trifluoro-methyl)pyridin-2-yl)-3,4-dihydro-2H-benzo[b][1,4]oxazin-2-yl)propanoyl)piperidine-4-carboxylic acid], in test [1], the EC50 was below 0.5 µM and the “TR-FRET Assay Max Response” value was “**** (The symbol “****” indicates a value greater than 200)”. Moreover, in test [2] (setting [3]), the EC50 is below 0.5 µM and the “Gal4-RORγ Assay Max Response” value is given as “** (The symbol “**” indicates a value in the range of greater than 90 to 150)”.
On to `O=C(CC[C@H]1CN(S(=O)(=O)c2cccc(C(F)(F)F)c2)c2cc(-c3cccc(C(F)(F)F)n3)ccc2O1)N1CCS(=O)(=O)CC1` [Compound 23G, (S)-1-(1,1-dioxidothio-morpholino)-3-(4-((3-(trifluoro-methyl)phenyl)sulfonyl)-6-(6-(trifluoromethyl)pyridin-2-yl)-3,4-dihydro-2H-benzo[b][1,4]-oxazin-2-yl)propan-1-one], for which, in test [1], the EC50 was below 0.5 µM and the “TR-FRET Assay Max Response” value was “**** (The symbol “****” indicates a value greater than 200)”. For the same compound, in test [2] (setting [3]), the EC50 is below 0.5 µM and the “Gal4-RORγ Assay Max Response” value is on record as “** (The symbol “**” indicates a value in the range of greater than 90 to 150)”.
`COc1cccc(-c2cc(F)c3c(c2)N(S(=O)(=O)c2cccc(C(F)(F)F)c2)C[C@H](CCC(=O)N2CCC(C(=O)O)CC2)O3)c1` [Compound 23H, (S)-1-(3-(8-fluoro-6-(3-methoxyphenyl)-4-((3-(trifluoromethyl)phenyl)sulfonyl)-3,4-dihydro-2H-benzo[b][1,4]oxazin-2-yl)propanoyl)piperidine-4-carboxylic acid]: in test [1], the EC50 was below 0.5 µM and the “TR-FRET Assay Max Response” value is reported as “**** (The symbol “****” indicates a value greater than 200)”. Also, in test [2] (setting [3]), the EC50 is below 0.5 µM and the “Gal4-RORγ Assay Max Response” value is “** (The symbol “**” indicates a value in the range of greater than 90 to 150)”.
With `O=C(O)C1CCN(C(=O)CC[C@H]2CN(S(=O)(=O)c3cccc(C(F)(F)F)c3)c3cc(-c4cccc(F)c4F)cc(F)c3O2)CC1` [Compound 23I, (S)-1-(3-(6-(2,3-difluorophenyl)-8-fluoro-4-((3-(trifluoromethyl)phenyl)sulfonyl)-3,4-dihydro-2H-benzo[b][1,4]oxazin-2-yl)propanoyl)piperidine-4-carboxylic acid], in test [1], the EC50 is below 0.5 µM and the “TR-FRET Assay Max Response” value is “**** (The symbol “****” indicates a value greater than 200)”. Further, in test [2] (setting [3]), the EC50 was below 0.5 µM and the “Gal4-RORγ Assay Max Response” value is on record as “** (The symbol “**” indicates a value in the range of greater than 90 to 150)”.
As to `O=C(O)CNC(=O)CC[C@H]1CN(S(=O)(=O)c2cccc(C(F)(F)F)c2)c2cc(-c3cccc(C(F)(F)F)n3)ccc2O1` [Compound 23J, (S)-(3-(4-((3-(trifluoromethyl)-phenyl)sulfonyl)-6-(6-(trifluoromethyl)pyridin-2-yl)-3,4-dihydro-2H-benzo[b][1,4]oxazin-2-yl)propanoyl)glycine], in test [1], the EC50 is below 0.5 µM and the “TR-FRET Assay Max Response” value is given as “**** (The symbol “****” indicates a value greater than 200)”. For the same compound, in test [2] (setting [3]), the EC50 lay in the range of 5 to 10 µM and the “Gal4-RORγ Assay Max Response” value is “*** (The symbol “***” indicates a value in the range of greater than 150 to 200)”.
